In patent publication US20040259764A1, “Reticulocyte depletion signatures” (priority 2002, published 2004):
Where two headings read alike, the source gives them in different places. Marks after values point to notes of the source that are not given here.

Legend:
[1] = system: Reticulocyte Depletion Signature (Alas2 and peripherin probes), bone marrow
Source text: (§1) Compound dosing was based on the acute dose LD50s recorded in published reference or literature sources. […] The MTD (maximum tolerated dose) was then selected as the dose at which the animals […] 5-10% body weight during the 5-day range finding study. […] In addition, the clinical observations must show no or mild clinical signs during the whole of the range-finding study. At the next highest dose, signs and symptoms of adverse effects and exceeding those of the MTD should be seen to occur. Should these criteria not be met, the range-finding study is repeated using a modified dose range.
(§2) After determination of the MTD and FED for a compound, each compound was dissolved in a vehicle for administration on day 1 of the study (additional daily doses were stored as frozen aliquots from this initial formulation). Each compound was administered to three individual male Sprague-Dawley rats for each of the two doses (MTD and FED) for one of four different times (0.25 day, 1 day, 3 days, and 5 days), yielding a total of up to 24 animals per compound study. Vehicle choice was based on solubility of the compound, effect of food on adsorption, and the vehicles used in the literature reports examined during the FED selection investigations, described above. Generally, the route and vehicle in which the FED was defined are used. When there was a choice of routes and vehicles, oral routes were chosen over injection routes. Many compounds, especially oncolytics, are only administerable intravenously. In such cases, the compound was administered as an intravenous formulation into the tail vein. Orally administered compounds were given dissolved in either water, 1% carboxymethycellulose (CMC) or corn oil. Intravenously and intraperitoneally administered compounds were given in 0.9% saline. Subcutaneously administered compounds were given in corn oil. Animal body weights were determined at 1 day and, where appropriate, at 4 days, before necropsy, and clinical observations were made on a daily basis. Control animals were dosed with vehicle only. Three male animals were used for each dose and time combination used for the compound treatment.
(§3) Tissue harvest and handling: After the allocated treatment time, the tissues from the animals were harvested. […] All the tissues collected were divided to provide samples for histopathological analyses, and the remainder of each tissue was then snap-frozen.
(§4) Preparation of enriched mRNA: Punch biopsies were taken from the frozen tissues and were completely homogenized before being processed using the MagNA Pure robot. (Roche Diagnostics Corp., Indianapolis, Ind.) in combination with the MagNA Pure LC RNA Isolation kit II (Roche Diagnostics Corp). The amount of lysis buffer was adjusted to allow 1 ml per 50 mg for liver tissue, or 1 ml per 80 mg for all other tissues. After complete homogenization and before loading of the samples into the 32-well MagNA Pure plate, the samples were syringed 5-6 times using a 20-gauge 3-ml syringe to ensure a smooth solution for robotic processing. Tissue sample processing was performed in duplicate wells (loading 150 μl of homogenized sample and 150 μl of additional lysis buffere to each well) of the MagNA Pure LC, which is programmed to extract mRNA using oligo-dT selection technology into a final elution volume of 100 μl. Poly A(+) RNA sample concentration was performed using a standard ethanol precipitation protocol in the presence of glycogen (50 μg/ml). After precipitation the final purified mRNA sample was resuspended in 7 μl DEPC-treated water and quantified using a Ribogreen high-range assay (Molecular Probes) on the Victor-Wallace II Fluorometer (Perkin-Elmer).

[2] = system: Reticulocyte Depletion Signature (Alas2 and peripherin probes), spleen
Source text: as §1, §2, §3, §4

[3] = system: Reticulocyte Depletion Signature (Alas2 and peripherin probes), liver
Source text: as §1, §2, §3, §4

[4] = bone marrow data, signature derived from liver, * = p < 0.01
[5] = spleen data, signature derived from liver, * = p < 0.01
[6] = liver data, highest training treatment normalised to 100, * = p < 0.01

Structure (SMILES): N.N.[Cl][Pt][Cl] [CISPLATIN]
- SPS (Bone Marrow) [1, 4]: 0
- SPS (Spleen) [2, 5]: 0

Structure (SMILES): Oc1c(Cl)cc(Cl)cc1Sc1cc(Cl)cc(Cl)c1O [BITHIONOL]
- SPS (Bone Marrow) ([1]; rat, in vivo): 0
- SPS (Spleen) ([2]; rat, in vivo): 27

Structure (SMILES): O=C(O)CCCc1ccc(N(CCCl)CCCl)cc1 [CHLORAMBUCIL]
- SPS (Bone Marrow) [1, 4]: 0
- Signature Projection Score (SPS) [3, 6]: 33
- SPS (Spleen) [2, 5]: 0

Structure (SMILES): C[C@]12CC[C@@H]3c4ccc(O)cc4CC[C@H]3[C@@H]1C[C@@H](O)[C@@H]2O [ESTRIOL]
- Signature Projection Score (SPS) ([3]; rat, in vivo): 41

Structure (SMILES): N.N.O=C([O-])C1(C(=O)[O-])CCC1.[Pt+2] [CARBOPLATIN]
- SPS (Bone Marrow) [1, 4]: 0
- SPS (Spleen) [2, 5]: 0

Structure (SMILES): O=NN(CCCl)C(=O)NC1CCCCC1 [LOMUSTINE]
- SPS (Bone Marrow) [1, 4]: 0
- Signature Projection Score (SPS) [3, 6]: 18
- SPS (Spleen) [2, 5]: 0

Structure (SMILES): CCC1=C[C@@H]2CN(C1)Cc1c([nH]c3ccccc13)[C@@](C(=O)OC)(c1cc3c(cc1OC)N(C)[C@H]1[C@@](O)(C(=O)OC)[C@H](OC(C)=O)[C@]4(CC)C=CCN5CC[C@]31[C@@H]54)C2 [VINORELBINE]
- SPS (Bone Marrow) ([1]; rat, in vivo): 132*

Structure (SMILES): CC[C@]1(O)C[C@H]2CN(CCc3c([nH]c4ccccc34)[C@@](C(=O)OC)(c3cc4c(cc3OC)N(C=O)[C@H]3[C@@](O)(C(=O)OC)[C@H](OC(C)=O)[C@]5(CC)C=CCN6CC[C@]43[C@@H]65)C2)C1 [VINCRISTINE]
- SPS (Bone Marrow) ([1]; rat, in vivo): 126*

Structure (SMILES): CCO [ETHANOL]
- SPS (Bone Marrow) ([1]; rat, in vivo): 0

Structure (SMILES): CN(C)c1nc(N(C)C)nc(N(C)C)n1 [ALTRETAMINE]
- SPS (Bone Marrow) ([1]; rat, in vivo): 0
- SPS (Spleen) ([2]; rat, in vivo): 0

Structure (SMILES): O=NN(CCCl)C(=O)NCCCl [CARMUSTINE]
- SPS (Bone Marrow) [1, 4]: 0
- Signature Projection Score (SPS) [3, 6]: 42
- SPS (Spleen) [2, 5]: 0

Structure (SMILES): COc1cccc2c1C(=O)c1c(O)c3c(c(O)c1C2=O)C[C@@](O)(C(C)=O)C[C@@H]3O[C@H]1C[C@H](N)[C@H](O)[C@H](C)O1 [DAUNORUBICIN]
- SPS (Bone Marrow) [1, 4]: 0

Structure (SMILES): CN(C)C=O [N,N-DIMETHYLFORMAMIDE]
- SPS (Bone Marrow) [1, 4]: 0
- SPS (Spleen) [2, 5]: 0

Structure (SMILES): CS(=O)(=O)OCCCCOS(C)(=O)=O [BUSULFAN]
- SPS (Bone Marrow) ([1]; rat, in vivo): 0
- Signature Projection Score (SPS) ([3]; rat, in vivo): 43
- SPS (Spleen) ([2]; rat, in vivo): 34

Structure (SMILES): C[C@H]1O[C@@H](n2cc(F)c(=O)[nH]c2=O)[C@H](O)[C@@H]1O [DOXIFLURIDINE]
- SPS (Bone Marrow) ([1]; rat, in vivo): 0

Structure (SMILES): C#C[C@]1(O)CC[C@H]2[C@@H]3CCc4cc(O)ccc4[C@H]3CC[C@@]21C [ETHINYLESTRADIOL]
- Signature Projection Score (SPS) ([3]; rat, in vivo): 75*

Structure (SMILES): CC/C(=C(/CC)c1ccc(O)cc1)c1ccc(O)cc1 [DIETHYLSTILBESTROL]
- SPS (Bone Marrow) ([1]; rat, in vivo): 0
- Signature Projection Score (SPS) ([3]; rat, in vivo): 33
- SPS (Spleen) ([2]; rat, in vivo): 88*

Structure (SMILES): ClC(Cl)(Cl)Cl [CARBON TETRACHLORIDE]
- SPS (Bone Marrow) [1, 4]: 0

Structure (SMILES): CC#C[C@]1(O)CC[C@H]2[C@@H]3CCC4=CC(=O)CCC4=C3[C@@H](c3ccc(N(C)C)cc3)C[C@@]21C [MIFEPRISTONE]
- Signature Projection Score (SPS) ([3]; rat, in vivo): 24

Structure (SMILES): COc1c(C)c2c(c(O)c1C/C=C(\C)CCC(=O)OCCN1CCOCC1)C(=O)OC2 [MYCOPHENOLATE MOFETIL]
- SPS (Bone Marrow) [1, 4]: 0

Structure (SMILES): OC(Cn1cncn1)(Cn1cncn1)c1ccc(F)cc1F [FLUCONAZOLE]
- Signature Projection Score (SPS) ([3]; rat, in vivo): 26

Structure (SMILES): Clc1ccc(COC(Cn2ccnc2)c2ccc(Cl)cc2Cl)c(Cl)c1 (centres unmarked) [MICONAZOLE]
- Signature Projection Score (SPS) ([3]; rat, in vivo): 38

Structure (SMILES): CN(Cc1cnc2nc(N)nc(N)c2n1)c1ccc(C(=O)N[C@@H](CCC(=O)O)C(=O)O)cc1 [METHOTREXATE]
- SPS (Bone Marrow) ([1]; rat, in vivo): 0
- Signature Projection Score (SPS) ([3]; rat, in vivo): 72*
- SPS (Spleen) ([2]; rat, in vivo): 148*

Structure (SMILES): Cc1ccc(C)c(OCCCC(C)(C)C(=O)O)c1 [GEMFIBROZIL]
- Signature Projection Score (SPS) ([3]; rat, in vivo): 18

Structure (SMILES): S=C=Nc1cccc2ccccc12 [1-NAPHTHYL ISOTHIOCYANATE]
- SPS (Bone Marrow) [1, 4]: 0

Structure (SMILES): CC(=O)N1CCN(c2ccc(OCC3COC(Cn4ccnc4)(c4ccc(Cl)cc4Cl)O3)cc2)CC1 (centres unmarked) [KETOCONAZOLE]
- Signature Projection Score (SPS) ([3]; rat, in vivo): 29

Structure (SMILES): CC(C)n1c(/C=C/C(O)CC(O)CC(=O)O)c(-c2ccc(F)cc2)c2ccccc21 (centres unmarked) [FLUVASTATIN]
- Signature Projection Score (SPS) ([3]; rat, in vivo): 0

Structure (SMILES): CC(C)c1c(C(=O)Nc2ccccc2)c(-c2ccccc2)c(-c2ccc(F)cc2)n1CC[C@@H](O)C[C@@H](O)CC(=O)O [ATORVASTATIN]
- Signature Projection Score (SPS) ([3]; rat, in vivo): 29

Structure (SMILES): CC(C)(Oc1ccc(CCNC(=O)c2ccc(Cl)cc2)cc1)C(=O)O [BEZAFIBRATE]
- Signature Projection Score (SPS) ([3]; rat, in vivo): 16

Structure (SMILES): CC1=C(/C=C/C(C)=C/C=C/C(C)=C\C(=O)O)C(C)(C)CCC1 [ISOTRETINOIN]
- Signature Projection Score (SPS) ([3]; rat, in vivo): 23

Structure (SMILES): CC[C@H](C)C(=O)O[C@H]1C[C@@H](C)C=C2C=C[C@H](C)[C@H](CC[C@@H]3C[C@@H](O)CC(=O)O3)[C@H]21 [LOVASTATIN]
- Signature Projection Score (SPS) ([3]; rat, in vivo): 26

Structure (SMILES): O=C1[O][Pt]2([NH][C@@H]3CCCC[C@H]3[NH]2)[O]C1=O [OXALIPLATIN]
- SPS (Bone Marrow) [1, 4]: 18

Structure (SMILES): CC[C@]1(O)C[C@@H]2CN(CCc3c([nH]c4ccccc34)[C@@](C(=O)OC)(c3cc4c(cc3OC)N(C)[C@H]3[C@@](O)(C(=O)OC)[C@H](OC(C)=O)[C@]5(CC)C=CCN6CC[C@]43[C@@H]65)C2)C1 [VINBLASTINE]
- SPS (Bone Marrow) ([1]; rat, in vivo): 0

Structure (SMILES): CC(C)(c1ccc(O)cc1)c1ccc(O)cc1 [BISPHENOL A]
- SPS (Bone Marrow) ([1]; rat, in vivo): 0
- SPS (Spleen) ([2]; rat, in vivo): 0

Structure (SMILES): C[C@@H]1C[C@H]2[C@@H]3CCC4=CC(=O)C=C[C@]4(C)[C@@]3(F)[C@@H](O)C[C@]2(C)[C@@]1(O)C(=O)CO [DEXAMETHASONE]
- Signature Projection Score (SPS) ([3]; rat, in vivo): 22

Structure (SMILES): Cc1oncc1C(=O)Nc1ccc(C(F)(F)F)cc1 [LEFLUNOMIDE]
- SPS (Bone Marrow) ([1]; rat, in vivo): 0
- Signature Projection Score (SPS) ([3]; rat, in vivo): 22
- SPS (Spleen) ([2]; rat, in vivo): 71*

Structure (SMILES): C[C@]12CCC(=O)C=C1CC[C@@H]1[C@@H]2CC[C@@]2(C)[C@H]1CC[C@]2(C)O [17-METHYLTESTOSTERONE]
- Signature Projection Score (SPS) [3, 6]: 59*

Structure (SMILES): C[C@]12CC[C@@H]3c4ccc(O)cc4CC[C@H]3[C@@H]1CC[C@@H]2O [BETA ESTRADIOL]
- Signature Projection Score (SPS) [3, 6]: 27

Structure (SMILES): O=C(c1ccc(OCCN2CCCCC2)cc1)c1c(-c2ccc(O)cc2)sc2cc(O)ccc12 [RALOXIFENE]
- Signature Projection Score (SPS) ([3]; rat, in vivo): 23

Structure (SMILES): CCN(CC)N=O [N-NITROSODIETHYLAMINE]
- SPS (Bone Marrow) [1, 4]: 0
- SPS (Spleen) [2, 5]: 0

Structure (SMILES): C#C[C@]1(OC(C)=O)CC[C@H]2[C@@H]3CCC4=CC(=O)CC[C@@H]4[C@H]3CC[C@@]21C [NORETHINDRONE ACETATE]
- Signature Projection Score (SPS) ([3]; rat, in vivo): 26
